Laboratory results from US11779659B2, “RNA constructs and uses thereof” (priority 2020, dated 2023).

Columns and labels:
[1] = LNP formulation screening: physical characteristics; assay type: physicochemical; settings: LNP with surrogate RNA coding for luciferase
Procedure: (§1) An exemplary LNP delivery system was developed to effectively and safely deliver therapeutic nucleic acids into the cytosol of various cell types after local administration in vivo. The early formulation work was performed with several promising LNP formulations and surrogate RNA coding for luciferase. The aim of the experiments was to correlate the effect of different ionizable cationic lipids on the efficacy of RNA delivery by LNPs in vivo. Formulations were compared in terms of RNA encapsulation efficiency, apparent pKa, LNP size and polydispersity.

liver = experiment: in vivo screening of LNP with luciferase (Luc) RNA, intravenous administration
Procedure: as §1
Based on this the ALC-0315/DSPC/CHOL/ALC-0159 prototype was submitted for in vivo screening. The results presented in FIG. 16 summarize the in vivo testing of two independent pilot batches using luciferase (Luc) RNA.
The formulation screening procedure described above involves intravenous administration resulting in delivery primarily to the liver. The mechanism of LNP uptake into hepatocytes is driven by binding of endogenous apolipoproteins to the LNP followed by receptor-mediated endocytosis e.g. through low density lipoprotein receptors. […] Luc expression was monitored at 4, 24, 72 and 96 hours post administration (FIG. 17).

In the case of `CCCCCCCCC(CCCCCC)C(=O)OCCCCCCN(CCCCO)CCCCCCOC(=O)C(CCCCCC)CCCCCCCC` (centres unmarked) [ALC-0315, ((4-hydroxybutyl)azanediyl)bis(hexane-6,1-diyl)bis(2-hexyldecanoate)], the “physical characteristics regarding particle size, homogeneity, and RNA encapsulation efficiency” value [1] is reported as “suitable” and the “potency as cationic lipid” value (liver) is reported as “highly potent”.
